The numbers were not newly measured in patent US20240398793A1, “Methods of Treating Lymphedema” (Celltaxis, LLC, priority 2021, published 2024), which cites them from elsewhere.

Entries after “also recorded” stand apart in the source; their conditions may differ.

The target in data set [1] is T1, LTA4H aminopeptidase (Homo sapiens (Human), UniProt P09960). The settings on record: read-out: Aminopeptidase IC50 ± SEM; cited from earlier work.
Data set [2] deals with LTA4H epoxide hydrolase (Homo sapiens (Human), UniProt P09960). The conditions noted are these: read-out: EH (Epoxide Hydrolase) IC50 ± SEM; cited from earlier work.
LTA4H epoxide hydrolase, sequence (P09960 whole entry): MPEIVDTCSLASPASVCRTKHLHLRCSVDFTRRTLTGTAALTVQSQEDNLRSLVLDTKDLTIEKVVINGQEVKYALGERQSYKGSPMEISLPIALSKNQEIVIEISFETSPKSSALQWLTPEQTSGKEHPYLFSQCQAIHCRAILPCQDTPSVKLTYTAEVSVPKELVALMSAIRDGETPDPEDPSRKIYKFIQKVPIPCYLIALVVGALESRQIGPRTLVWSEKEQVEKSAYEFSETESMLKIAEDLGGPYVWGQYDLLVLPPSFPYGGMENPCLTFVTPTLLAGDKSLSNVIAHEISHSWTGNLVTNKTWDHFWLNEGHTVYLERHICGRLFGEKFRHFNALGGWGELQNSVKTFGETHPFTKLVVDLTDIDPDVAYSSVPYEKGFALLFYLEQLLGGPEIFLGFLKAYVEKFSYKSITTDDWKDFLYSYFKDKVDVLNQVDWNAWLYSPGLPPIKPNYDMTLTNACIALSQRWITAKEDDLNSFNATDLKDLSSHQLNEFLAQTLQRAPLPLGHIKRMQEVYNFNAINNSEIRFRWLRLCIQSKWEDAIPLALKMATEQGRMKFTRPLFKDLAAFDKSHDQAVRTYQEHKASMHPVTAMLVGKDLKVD
For data set [3], the system named is human lymphedema. The conditions noted are these: adult lymphedema subjects, open-label and placebo-controlled pilot; cited from earlier work.
In data set [4] the test system is experimental acquired lymphedema. The conditions noted are these: cited from earlier work.
Data set [5] has as its target T1, LTA4H aminopeptidase. The settings on record: Bhatt et al. (2017); Inoi et al. (1995); cited from earlier work.
For data set [6], the system named is aminopeptidases. The conditions noted are these: Bhatt et al. (2017); Inoi et al. (1995); cited from earlier work.
Data set [7] concerns lymphedema of the lower limb. The settings on record: Phase 2, lymphedema of the lower limb; cited from earlier work.

T1 sequence (P09960 whole entry): as above

Broadly, the IC50 is the midpoint of a concentration-inhibition curve. As for `CC(=O)Oc1ccc(/C=C/c2cc(OC(C)=O)cc(OC(C)=O)c2)cc1` [Compound 4], the 50% inhibitory concentration (IC50) in data set [1] is greater than 100 µM.
In the case of `O=c1c(-c2ccc(O)cc2)coc2c3c(ccc12)OCO3` [Compound 14], the half-inhibitory concentration (IC50) in data set [2] was 20.6 ± 24 µM; in data set [1], 20.6 ± 3.3 µM.
Turning to `COc1cc(O)cc(CCc2cccc(O)c2)c1` [Compound 8], the half-maximal inhibitory concentration (IC50) in data set [1] was greater than 100 µM.
Turning to `COc1cc(O)cc(CCc2ccccc2O)c1` [Compound 9], the 50% inhibitory concentration (IC50) in data set [1] is greater than 100 µM.
Consider `O=C(Cc1ccc(O)cc1)c1ccc(O)cc1O` [Compound 10], for which, in data set [1], the concentration for half-maximal inhibition (IC50) is greater than 100 µM.
Regarding `O=c1c(-c2ccc(O)cc2)coc2cc(O)ccc12` [Compound 11], the IC50 in data set [1] was greater than 100 µM.
For `Cc1ccc2c(=O)c(-c3ccc(O)cc3)coc2c1O` [Compound 15], in data set [1], the half-inhibitory concentration (IC50) was 69.2 ± 10.9 µM.
With `O=c1c(-c2ccc(O)cc2)coc2c(O)cccc12` [Compound 12], the IC50 in data set [2] was 7.3 ± 0.8 µM; in data set [1], 62.7 ± 13.3 µM.
With `CC(C(=O)O)c1cccc(C(=O)c2ccccc2)c1` (stereo not shown) [ketoprofen], the “skin thickness and cutaneous histopathology” value in data set [3] is given as “salutary effects; also recorded: improve skin thickness”. Besides, the lymphedema disease burden result in data set [4] (mice, systemic administration) is listed as “documented reversal of disease burden; also recorded: disease burden was reversed”.
Take `O=c1c(-c2ccccc2)coc2cc(O)ccc12` [Compound 13]: in data set [1], the 50% inhibitory concentration (IC50) is greater than 100 µM.
On to `COc1cc(O)cc(CCc2ccc(O)cc2)c1` [Compound 6], for which the concentration for half-maximal inhibition (IC50) in data set [1] was greater than 100 µM.
Turning to `CCOc1cc(O)cc(CCc2ccc(O)cc2)c1` [Compound 7], the IC50 in data set [1] was greater than 100 µM.
For `CC(C)C[C@H](NC(=O)[C@@H](O)[C@H](N)Cc1ccccc1)C(=O)O` [Ubenimex], the LTA4H selectivity entry in data set [5] is “non-selective LTA4H inhibitor”. Besides, the aminopeptidase inhibition spectrum entry in data set [6] is recorded as “broad spectrum aminopeptidase inhibitor”. In addition, in data set [7], the “improvement in skin thickness, limb volume and bioimpedance over placebo” value is “did not identify an improvement”. For the same compound, the “edema, lymphatic function, lymphatic architecture” value in data set [4] (murine model of lymphedema) is “reversed edema, improved lymphatic function, and restored lymphatic architecture”.
